Results taken from paper PMC9430770 (Microbiology Spectrum, 2022).

Tests used:
[1] = tested on: C. albicans SN152; assay: Galleria mellonella infection model, SN152 strain; format: in vivo, Candida albicans; settings: G. mellonella, 10 mg/kg
Method: To assess whether Eno1 is a therapeutic target of BE, we constructed a homozygous deletion strain for the ENO1 gene (eno1/eno1). We then investigated the difference in the antifungal efficacy of BE on the infections caused by the parent strain SN152 and the eno1/eno1 strain in the Galleria mellonella infection model. We divided the G. mellonella into 5 groups, with 10 larvae in each group. All 10 larvae died after a 24-h infection with the SN152 strain, while only 3 larvae died after 24 h when infected with the eno1/eno1 strain; the remaining larvae died within 7 days. Compared with the group infected with the parent strain, the survival time of the group infected with the eno1/eno1 strain was longer (P < 0.01) (Fig. 4A). […]
FIG 4 Eno1 acts as a therapeutic target of BE. […] Each curve represents a group of 10 larvae (n =10) monitored daily for survival for up to 10 days after infection. […]
Virulence testing of C. albicans was done in Galleria mellonella as described previously ([56]). […] After growth in YPD media overnight at 30°C and 200 rpm, C. albicans SN152 cells or eno1/eno1 mutant cells were washed with PBS 3 times and diluted to the desired concentration (1 × 10^7 cells/mL) determined by counting with a hemacytometer. […] The death of G. mellonella was assessed daily and analyzed statistically by the Kaplan-Meier method (log-rank test).

[2] = target: T1, recombinant C. albicans Eno1 (Candida albicans, UniProt P30575); assay: Target protein competition experiment between BE and label-BE (TAMRA-N3 reporter); format: binding; settings: preincubation with 100 μM BE, then 10 μM label-BE; E. coli lysates with recombinant CaEno1
T1 construct: the full-length ENO1 gene from C. albicans was cloned into the pET-21a (+) plasmid; made in house; host or cells: E. coli BL21(DE3)
Excerpt: FIG 2 Eno1 is a target of BE. (A) Schematic diagram of synthesis label-BE. Label-BE is synthesized by intermediate TPD-10a with benzyl bromide structure and triacetylated BE. (B) The molecular structure of label-BE. Label-BE contains a trifluoromethylphenyl diazo heterocyclic propylene group (marked by a red dotted line) as a photoaffinity group to enhance the binding of label-BE to its target proteins and an alkyne group (marked by a blue dotted line) connected with an azide group (from the TAMRA-N3 or biotin-N3) by a copper-catalyzed azide-alkyne cycloaddition. (C) The molecular structures of TAMRA-N3 and biotin-N3. […] After separation of SDS-PAGE, label-BE-targeted proteins were visualized by in-gel fluorescence scanning. The three fluorescent bands in lane 3 (indicated by red triangles) were cut out and pooled and then analyzed by LC-MS/MS. […] The brighter band in lane 3 (indicated by red triangle) was then cut out and analyzed by LC-MS/MS. […]
Target protein competition experiments between BE and label-BE were performed as described previously ([51], [52]). […] The bands with changes in fluorescence brightness were then cut off and analyzed by LC-MS/MS; for labeling label-BE with biotin-N3, protein solutions were enriched with streptavidin-conjugated beads. […]

T1 sequence (P30575 whole entry): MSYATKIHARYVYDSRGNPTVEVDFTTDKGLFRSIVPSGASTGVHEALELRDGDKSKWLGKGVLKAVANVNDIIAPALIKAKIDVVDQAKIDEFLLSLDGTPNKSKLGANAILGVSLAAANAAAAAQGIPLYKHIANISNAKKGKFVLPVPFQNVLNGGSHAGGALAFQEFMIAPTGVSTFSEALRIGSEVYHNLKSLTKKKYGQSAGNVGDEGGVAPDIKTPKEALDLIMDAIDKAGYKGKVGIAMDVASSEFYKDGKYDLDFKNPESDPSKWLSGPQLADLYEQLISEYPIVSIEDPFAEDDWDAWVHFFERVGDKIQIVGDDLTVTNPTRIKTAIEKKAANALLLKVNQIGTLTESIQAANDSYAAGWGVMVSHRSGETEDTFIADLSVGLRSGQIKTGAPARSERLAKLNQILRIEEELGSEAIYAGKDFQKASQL

## O=c1cc(-c2ccccc2)oc2cc(O)c(O)c(O)c12 [BE, Baicalein]
[1]
  survival rate of larvae extended versus infected group without drug treatment: 30%
[2]
  competition with label-BE for the CaEno1 band (in-gel fluorescence): remarkably reduce the fluorescent brightness
